Laboratory results published in patent US8716342B2, “Method for preparing molecular complexes between adapalene and cyclodextrins” (Galderma Research & Development, priority 2009, dated 2014).

Test: Kinetics of dissolution at 3 g/l and at 25° C. in water (adapalene solubilized, HPLC; pH of the solution at the end)
Assay type: physicochemical
Experimental: b) Kinetics of Dissolution at 3 g/l and at 25° C.
The chromatographic conditions and the concentrations of the control solutions are the same as those of the assay.
• Stirring: 15-position bench • Thermostated bath: 25° C. +/−2° C. verified on Prolabo PR 531 probe • HPLC Waters 2690-Detector 2487/2996 • Weighing out: Sartorius A200 balance • Dilutions: Eppendorf Research 1000, Eppendorf Research 5000, Gilson M1000 micropipette • Ultrapure water station: ELGA Operating conditions:
A test sample equivalent to 150 mg of Adapalene is introduced into a 100 ml Erlenmeyer flask. 50 ml of water are added. The mixture is stirred magnetically at 400 rpm or position 4 in a waterbath at 25° C. +/−2° C. A 2 ml sample is withdrawn at 15, 30, 60, 120 and 1140 minutes, while stirring magnetically. These withdrawn samples are filtered through 0.45 μm Gelman GHP Acrodisc polypropylene filters. The solution must be clear. The withdrawn samples are diluted by a factor “a” in the mobile phase, making it possible to have an Adapalene peak of surface area included between the surface areas of Control 1 and Control 5.
10 μl of each control solution are injected. A linear regression of the surface areas of the Adapalene peaks relative to the concentrations is performed.
10 μl of the solution to be examined are injected.
The area of the Adapalene peak in each solution to be examined is measured.
The concentration X in μg/ml is deduced therefrom according to the regression line of the controls.
The concentration in μg of Adapalene solubilized per ml is calculated with the formula: [Adapalene] in μg/ml=X×a
The variation in the amount dissolved in μg/ml as a function of time is represented on a graph.
At the end of dissolution, the appearance is immediately noted and the pH of the solution immediately measured.

pH of dissolution, 15 minutes (15 minutes): (5.7) | pH of dissolution, 7 days (7 days): (5.7) | Dissolution, 15 minutes (maturation temperature 85° C., 15 minutes): 0 µg/mL | Dissolution, 7 days (maturation temperature 85° C., 7 days): 0 µg/mL
SMILES: COc1ccc(-c2ccc3cc(C(=O)O)ccc3c2)cc1C12CC3CC(CC(C3)C1)C2 [Adapalene alone, 6-(3-(1-adamantyl)-4-methoxyphenyl)-2-naphthoic acid]
